# Reference: patent publication US10065990B2, “Cyclic peptide compound, and preparation method, pharmaceutical composition and use thereof” (HANGZHOU GUANYU BIO-MEDICAL CO., LTD, priority 2013, dated 2018)
# Where two headings read alike, the source gives them in different places.
# Legend:
# [1] = biological target: T1, HDAC7 (Homo sapiens, UniProt Q8WUI4); assay: HDAC biochemical activity measurement (fluorescent substrate deacetylation);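 note: fluorogenic deacetylation assay using acetyl-lysine substrate at 20 µM, enzyme and compound incubated 30 min at 37 °C, then developer added, fluorescence read at 360/460 nm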; details: HDAC7; 37° C. 30 minutes
# T1 sequence (Q8WUI4 1-952): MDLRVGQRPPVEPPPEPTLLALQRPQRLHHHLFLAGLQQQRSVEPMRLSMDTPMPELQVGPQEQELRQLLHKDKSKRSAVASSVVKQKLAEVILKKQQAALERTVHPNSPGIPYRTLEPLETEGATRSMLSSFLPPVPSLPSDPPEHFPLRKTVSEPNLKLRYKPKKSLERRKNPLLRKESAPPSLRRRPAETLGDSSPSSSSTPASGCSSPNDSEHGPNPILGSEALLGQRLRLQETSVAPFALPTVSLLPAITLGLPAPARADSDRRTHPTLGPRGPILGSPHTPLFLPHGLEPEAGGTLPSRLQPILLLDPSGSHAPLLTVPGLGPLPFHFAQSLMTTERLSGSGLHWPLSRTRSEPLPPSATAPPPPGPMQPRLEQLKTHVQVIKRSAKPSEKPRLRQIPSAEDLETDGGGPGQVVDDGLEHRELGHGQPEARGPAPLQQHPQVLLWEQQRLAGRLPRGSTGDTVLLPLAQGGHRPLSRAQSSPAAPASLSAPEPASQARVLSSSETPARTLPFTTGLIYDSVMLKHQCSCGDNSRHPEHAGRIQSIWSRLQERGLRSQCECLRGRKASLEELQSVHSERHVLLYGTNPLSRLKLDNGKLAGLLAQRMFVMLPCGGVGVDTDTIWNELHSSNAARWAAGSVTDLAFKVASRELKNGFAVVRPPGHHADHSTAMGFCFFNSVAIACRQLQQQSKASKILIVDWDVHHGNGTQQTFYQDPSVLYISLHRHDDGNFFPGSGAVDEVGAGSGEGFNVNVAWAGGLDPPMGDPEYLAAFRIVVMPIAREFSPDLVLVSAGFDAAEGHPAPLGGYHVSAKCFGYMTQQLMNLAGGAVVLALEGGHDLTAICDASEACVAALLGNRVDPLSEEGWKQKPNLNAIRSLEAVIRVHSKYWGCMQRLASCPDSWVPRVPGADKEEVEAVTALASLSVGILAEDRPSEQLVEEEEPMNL
# [2] = tested on: A549 (human lung cancer cells); assay: MTT cancer cell growth inhibition; format: cell-based; details: Homo sapiens, A549, 72 h, MTT, 72 hours incubation, read-out: GI50 A54
# Outline: (§1)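 Following overnight attachment of 1500 cells per well, each line was exposed to test drug (final 10^−5 to 10^−10 M) for 72 h in a humidified 37° C., 5% CO2 incubator. Four hours with MTT, DMSO dissolution of formazan, and a 570 nm reading yielded viability data used for GI50.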
# [3] = tested on: BGC-823 (human gastric cancer cells); assay: MTT cancer cell growth inhibition; format: cell-based; details: Homo sapiens, BGC-823, 72 h, MTT, 72 hours incubation, read-out: GI50 BG
# Outline: as §1
# [4] = tested on: Bel-7402 (human hepatoma cells); assay: MTT cancer cell growth inhibition; format: cell-based; details: Homo sapiens, Bel-7402, 72 h, MTT, 72 hours incubation, Bel-7402 cells; read-out: GI50 Bel-7402
# Outline: as §1
# [5] = tested on: DU145 (human prostate cancer cells); assay: MTT cancer cell growth inhibition; format: cell-based; details: Homo sapiens, DU-145, 72 h, MTT, 72 hours incubation, read-out: GI50 Du1
# Outline: as §1
# [6] = tested on: H1975 (non-small cell lung adenocarcinoma); assay: MTT cancer cell growth inhibition; format: cell-based; details: Homo sapiens, NCI-H1975, 72 h, MTT, 72 hours incubation, H1975 cells; read-out: GI50 H1975
# Outline: as §1
# [7] = tested on: HCC827 (human non-small cell lung cancer cells); assay: MTT cancer cell growth inhibition; format: cell-based; details: Homo sapiens, HCC827, 72 h, MTT, 72 hours incubation, HCC827 cells; read-out: GI50 HCC827
# Outline: as §1
# [8] = tested on: HT1080 (human fibrosarcoma cells); assay: MTT cancer cell growth inhibition; format: cell-based; details: Homo sapiens, HT-1080, 72 h, MTT, 72 hours incubation, read-out: GI50 HT1
# Outline: as §1
# [9] = tested on: Hela (human cervical cancer cells); assay: MTT cancer cell growth inhibition; format: cell-based; details: Homo sapiens, HeLa, 72 h, MTT, 72 hours incubation, read-out: GI50 Hela
# Outline: as §1
# [10] = tested on: Huh-7 (human hepatoma cells); assay: MTT cancer cell growth inhibition; format: cell-based; details: Homo sapiens, Huh-7, 72 h, MTT, 72 hours incubation, Huh-7 cells; read-out: GI50 Huh-7
# Outline: as §1
# [11] = tested on: K562 (human leukemia cells); assay: MTT cancer cell growth inhibition; format: cell-based; details: Homo sapiens, K562, 72 h, MTT, 72 hours incubation, K562 cells; read-out: GI50 K562
# Outline: as §1
# [12] = tested on: KBM-5 (human chronic myelogenous leukemia); assay: MTT cancer cell growth inhibition; format: cell-based; details: Homo sapiens, KBM5, 72 h, MTT, 72 hours incubation, KBM-5 cells; read-out: GI50 KBM-5
# Outline: as §1
# [13] = tested on: KBM5-T315I (human chronic myelogenous leukemia); assay: MTT cancer cell growth inhibition; format: cell-based; details: Homo sapiens, 72 h, MTT, 72 hours incubation, KBM5-T315I cells; read-out: GI50 KBM5-T315I
# Outline: as §1
# [14] = tested on: MCF-7 (human breast cancer cells); assay: MTT cancer cell growth inhibition; format: cell-based; details: Homo sapiens, MCF7, 72 h, 72 hours incubation, read-out: GI50 MCF
# Outline: as §1
# [15] = tested on: MDA-MB-231 (breast cancer cells); assay: MTT cancer cell growth inhibition; format: cell-based; details: Homo sapiens, MDA-MB-231, 72 h, read-out: GI50 MDA-MB-231, MTT, 72 hours incubation, MDA-MB-231 cells
# Outline: as §1
# [16] = tested on: MOLT-4 (human acute lymphoblastic leukemia cells); assay: MTT cancer cell growth inhibition; format: cell-based; details: Homo sapiens, MOLT-4, 72 h, MTT, 72 hours incubation, read-out: GI50 Mol
# Outline: as §1
# [17] = tested on: N-87 (human gastric cancer cells); assay: MTT cancer cell growth inhibition; format: cell-based; details: Homo sapiens, 72 h, MTT, 72 hours incubation, N-87 cells; read-out: GI50 N-87
# Outline: as §1
# [18] = tested on: PANC-1 (Pac-1, human pancreatic cancer cells); assay: MTT cancer cell growth inhibition; format: cell-based; details: Homo sapiens, PANC-1, 72 h, MTT, 72 hours incubation, read-out: GI50 PAN
# Outline: as §1
# [19] = tested on: SGC-7901 (human gastric cancer cells); assay: MTT cancer cell growth inhibition; format: cell-based; details: Homo sapiens, SGC-7901, 72 h, MTT, 72 hours incubation, SGC-7901 cells; read-out: GI50 SGC-7901
# Outline: as §1
# [20] = tested on: U937 (human leukemia cells); assay: MTT cancer cell growth inhibition; format: cell-based; details: Homo sapiens, U-937, 72 h, MTT, 72 hours incubation, read-out: GI50 U93
# Outline: as §1
# [21] = tested on: lncap (prostate cancer cells); assay: MTT cancer cell growth inhibition; format: cell-based; details: Homo sapiens, LNCaP, 72 h, MTT, 72 hours incubation, read-out: GI50 lnca
# Outline: as §1
Structure (SMILES),IC50 HDAC7 [1],GI50 [4],GI50 [6],GI50 [7],GI50 [10],GI50 [11],GI50 [12],GI50 [13],GI50 [15],GI50 [17],GI50 [19],GI50 [2],GI50 [3],GI50 [5],GI50 [8],GI50 [9],GI50 [14],GI50 [16],GI50 [18],GI50 [20],further results
C/C=C1\NC(=O)c2cc(SC)cc(n2)CNC(=O)C[C@@H](/C=C/CCS)OC(=O)[C@H](C)NC1=O [Compound 233],no activity,81 nM,51 nM,81 nM,41 nM,24 nM,97 nM,46 nM,36 nM,35 nM,51 nM,,,,,,,,,,GI50 ([2]; A549 cells): 20 nM; GI50 ([3]; BGC-823 cells): 60 nM; GI50 ([5]; DU145 cells): 50 nM; GI50 ([8]; HT1080 cells): 70 nM; GI50 ([9]; Hela cells): 50 nM; GI50 ([14]; MCF-7 cells): 20 nM; GI50 ([16]; MOLT-4 cells): 30 nM; GI50 ([18]; PANC-1 cells): 20 nM; GI50 ([20]; U937 cells): 80 nM; GI50 ([21]; lncap cells): 20 nM
C/C=C1\NC(=O)c2ccc(F)c(n2)CNC(=O)C[C@@H](/C=C/CCSC(=O)CCCCCCC)OC(=O)[C@H](C(C)C)NC1=O [Example 32],no activity,67 nM,53 nM,67 nM,38 nM,34 nM,71 nM,58 nM,38 nM,69 nM,45 nM,40 nM,60 nM,30 nM,60 nM,70 nM,50 nM,30 nM,60 nM,50 nM,GI50 [21]: 30 nM
C=C1NC(=O)c2ccc(F)c(n2)CNC(=O)C[C@@H](/C=C/CCSC(C)=O)OC(=O)[C@H](C)NC1=O [Compound 92],no activity,62 nM,29 nM,62 nM,43 nM,22 nM,42 nM,29 nM,43 nM,15 nM,57 nM,50 nM,10 nM,20 nM,60 nM,40 nM,20 nM,40 nM,60 nM,20 nM,GI50 [21]: 40 nM
C=C1NC(=O)c2cccc(n2)CNC(=O)C[C@@H](/C=C/CCSC(C)=O)OC(=O)[C@H](C)NC1=O [Example 21],no activity,83 nM,37 nM,34 nM,84 nM,25 nM,73 nM,27 nM,98 nM,35 nM,24 nM,330 nM,870 nM,990 nM,1050 nM,400 nM,100 nM,1010 nM,1170 nM,5110 nM,GI50 [21]: 1210 nM

# Stronger by GI50 [4], values ahead:
IC50 HDAC7 [1],GI50 [4],GI50 [6],GI50 [7],GI50 [10],GI50 [11],GI50 [12],GI50 [13],GI50 [15],GI50 [17],GI50 [19],GI50 [2],GI50 [3],GI50 [5],GI50 [8],GI50 [9],GI50 [14],GI50 [16],GI50 [18],GI50 [20],Structure (SMILES),further results
no activity,37 nM,38 nM,77 nM,28 nM,86 nM,71 nM,53 nM,23 nM,77 nM,91 nM,,,,,,,,,,C/C=C1\NC(=O)c2nc(ccc2SC)CNC(=O)C[C@@H](/C=C/CCS)OC(=O)[C@H](CC)NC1=O [Compound 229],GI50 ([2]; A549 cells): 60 nM; GI50 ([3]; BGC-823 cells): 740 nM; GI50 ([5]; DU145 cells): 50 nM; GI50 ([8]; HT1080 cells): 10 nM; GI50 ([9]; Hela cells): 30 nM; GI50 ([14]; MCF-7 cells): 70 nM; GI50 ([16]; MOLT-4 cells): 30 nM; GI50 ([18]; PANC-1 cells): 50 nM; GI50 ([20]; U937 cells): 20 nM; GI50 ([21]; lncap cells): 30 nM
no activity,49 nM,55 nM,32 nM,91 nM,46 nM,38 nM,26 nM,32 nM,48 nM,61 nM,110 nM,20 nM,80 nM,30 nM,50 nM,30 nM,100 nM,30 nM,110 nM,C/C=C1\NC(=O)c2ccc(F)c(n2)CNC(=O)C[C@@H](/C=C/CCS)OC(=O)[C@H](CCCCNC(=O)OCC2c3ccccc3-c3ccccc32)NC1=O [Compound 122],GI50 [21]: 30 nM
no activity,36 nM,67 nM,37 nM,83 nM,28 nM,63 nM,19 nM,56 nM,28 nM,73 nM,,,,,,,,,,C=C1NC(=O)c2nc(ccc2SC)CNC(=O)C[C@@H](/C=C/CCSC(C)=O)OC(=O)[C@H](C(C)C)NC1=O [Compound 204],GI50 ([2]; A549 cells): 30 nM; GI50 ([3]; BGC-823 cells): 20 nM; GI50 ([5]; DU145 cells): 50 nM; GI50 ([8]; HT1080 cells): 30 nM; GI50 ([9]; Hela cells): 60 nM; GI50 ([14]; MCF-7 cells): 30 nM; GI50 ([16]; MOLT-4 cells): 40 nM; GI50 ([18]; PANC-1 cells): 20 nM; GI50 ([20]; U937 cells): 20 nM; GI50 ([21]; lncap cells): 50 nM
